Laboratory results: US20070037887A1, “Blockade of mtor to prevent a hormonal adaptive response” (University of Virginia Patent Foundation, priority 2003, published 2007)

Tests used:
PHAS-I = PHAS-I phosphorylation in 293T cells (SDS-PAGE mobility, PThr36/45 immunoblot); format: cell-based; settings: increasing concentrations, 1 h
Protocol: FIG. 11A & 11B represent data showing FTS inhibits PHAS-I phosphorylation and promotes dissociation of the mTOR-raptor complex in 293T cells. 293T cells were transfected with pcDNA3AU1-mTOR, pcDNA33HARaptor, pcDNA33HA-mLST8, and pCMV-Tag3APHAS-I (FIG. 11A). After 18 h the cells were incubated for 1 h with increasing concentrations of FTS before extracts were prepared. A sample of each extract was subjected to SDS-PAGE and immunoblotted to detect PHAS-I or PThr^36/45. AU1-mTOR was also immunoprecipitated from each extract, and immune complexes were subjected to SDSPAGE and immunoblotted with mTAb2, to detect mTOR, and with anti-HA antibodies, to detect HA-mLST8 and HA-raptor. Nontransfected 293T cells were incubated with increasing concentrations of FTS for 1 h before extracts were prepared. mTOR was immunoprecipitated with mTAb1, and samples were subjected to SDS-PAGE.
To investigate the effects of FTS on mTOR function in 293T cells, changes in the phosphorylation of PHAS-I, a well characterized target of mTOR were monitored. Phosphorylation of Ser64 and Thr69 in PHAS-I causes a dramatic decrease in the mobility of the protein in SDS-PAGE, so that changes in the mobility provide an index of changes in phosphorylation state. […]

LTED cells = experiment: Growth of LTED cells (cell number); format: cell-based, human
Protocol: (§1) FIG. 3 represents the effect of FTS on the growth of MCF-7, LTED, and MCF-10A cells. Sixty thousand cells were plated into each well of 6-well plates. Two days later, the cells were treated in triplicate for five days with FTS at indicated concentrations. The results (mean±S.E.) are expressed as percentage of the vehicle control.
(§2) FIG. 4 represents the effect of FTS on E2 stimulated growth of MCF-7 and LTED cells. Thirty thousand cells were plated into each well of 6-well plates. Two days later, the cells were re-fed with IMEM containing 5% DCC-FBS. After another two days, cells were treated in triplicate with estradiol (10^−10 M) plus various concentrations of FTS for five days. In LTED cells, fulvestrant (10^−9 M) was included in all wells to block the effect of residual estrogen in the culture. The results (mean±S.E.) are expressed as percentage of cell number from the wells containing E2.
The effect of FTS on growth of breast cancer cells was examined in two different cell lines: MCF-7 wild type cells which represent a model for untreated breast cancer and LTED cells as a model of cells adapting to endocrine treatment. Cells were grown in their culture media and treated with FTS for five days. […] The effect of FTS on E2-stimulated growth of MCF-7 and LTED cells was the examined. […]

MCF-7 cells = experiment: Growth of MCF-7 cells (cell number); format: cell-based, human
Protocol: as §1, §2
The effect of FTS on growth of breast cancer cells was examined in two different cell lines: MCF-7 wild type cells which represent a model for untreated breast cancer and LTED cells as a model of cells adapting to endocrine treatment. Cells were grown in their culture media and treated with FTS for five days. […] The effect of FTS on E2-stimulated growth of MCF-7 and LTED cells was the examined. Five-day treatment of MCF-7 cells with E2 (10^−10 M) increased cell number by 8-fold compared with the vehicle control. Addition of FTS reduced cell number in a dose-dependent manner with about 50% inhibition at the concentration of 50 μM […]. […] The extent of inhibition of E2-stimulated cell growth by FTS was similar in these two cell lines.

JNK = JNK activation in LTED cells cultured in vitro; format: cell-based, human
Text: FIGS. 17A & 17B represent data showing the effects of FTS on JNK activation in LETD cells cultured in vitro.
FIGS. 17A & 17B represent data showing the effects of FTS on JNK activation in LTED cells cultured in vitro. […] JNK activation has been reported to be associated with apoptosis.

[1] = system: ERK1/2, Akt, p70S6K, PHAS-1 phosphorylation in LTED cells; experiment: EGF induced activation of MAP kinase, PI3 kinase and mTOR in LTED cells (Western); format: cell-based, human
Text: FIG. 8 represents data showing the effect of FTS on EGF induced activation of MAP kinase, PI3 kinase, and mTOR in LTED cells. […] Cells were then harvested and cell lysate prepared. Phosphorylated and total kinases were detected by Western analysis using specific antibodies.
The effects of the specific growth factors, EFG and IGF-1 were also examined. Serum contains multiple growth factors that activate MAP kinase and PI3 kinase either by recruitment and activation of the common mediator Ras (such as EGF) or through a direct mechanism (such as IGF-1). To further explore the site of action of FTS, EGF-induced activation of MAPK and PI3 kinase was first examined. Specific inhibitors for PI3 kinase and mammalian target of rapamycin (mTOR) were included for comparison. […] One-hour treatment was chosen as the time point allowing most efficient comparisons among molecules.

Solubility in buffer = format: physicochemical
[2] = pretreatment FTS 1 h, LY 294002 or rapamycin 3 h, EGF 1 μg/ml 1 h

CC(C)=CCC/C(C)=C/CC/C(C)=C/CSc1ccccc1C(=O)O [FTS, farnesylthiosalicylic acid]
phosphorylation of PHAS-I (electrophoretic mobility) (PHAS-I): decreased the phosphorylation
reactivity of PHAS-I with PThr36/45 phosphospecific antibodies (PHAS-I): markedly decreased
E2-stimulated growth (LTED cells; E2 10^−10 M in the presence of fulvestrant 10^−9 M): inhibited
basal growth (LTED cells; culture media, five days): dose-dependently inhibited
inhibition at 50 µM (MCF-7 cells; Homo sapiens, MCF7, 120 h, read-out: inhibition of E2-stimulated growth (cell number)): ~50%
basal growth (MCF-7 cells; culture media, five days): dose-dependently inhibited
JNK activation (JNK): stimulates JNK activation
growth factor induced Thr229 phosphorylation of p70 S6K ([1]; EGF or IGF-1): very limited, if any, inhibition
EGF-induced phosphorylation of p70S6K at Thr389 ([1]; FTS even at 50 μM, EGF 1 μg/ml 1 h): completely abolished
EGF-induced ERK1/2 MAP kinase phosphorylation [1, 2]: did not inhibit
EGF-induced phosphorylation of Akt at Ser473 [1, 2]: neither FTS nor rapamycin blocked
PHAS-1 Ser65 phosphorylation ([1]; serum starved 24 h, EGF): dose-dependently inhibited
solubility in buffer (Solubility in buffer): only limited solubility
